Data on 14 compounds can be found in US20090291929A1, “STEROIDS HAVING A MIXED […] PRO[…]” (N.V. ORGANON, priority 2005, published 2009).

Read-outs that look alike come from different tables or passages of the source.

The conditions of series [1]: from literature; cited from earlier work.
The conditions of series [2]: from literature (Seaman 1985); cited from earlier work.
A short description of the next series: Oral activity. The format is in vivo. To be noted: found by applicant ("We have found").
Series [3] is described as follows: Prevention of trabecular bone mineral density (BMD) loss. To be noted: found by applicant. The format is in vivo. An excerpt:
Biological activity of compounds according to the invention can be observed in vivo in the rat serum LH suppression test and in the rat anti-steoporosis test measuring restoration of trabecular bone mineral density. Anabolic effect can be observed on musculus levator ani. In the monkey activity can be observed in the testosterone suppression test. In vivo liver safety can be evaluated in the rabbit upon repeated administration of a compound according to the invention.

Series [4] in a line: Liver safety: BSP retention assay in male castrated rabbits. It is filed as in vivo, New Zealand White rabbits. To be noted: 10 mg/kg/day per oral for 7 days, BSP 15 mg/kg intravenous. The procedure:
The primary aim of this test was the evaluation of liver function, by measuring the clearance of a single, intravenously injected, dose of bromosulfophthalein (BSP) after 7 days (once daily) per oral treatment of male castrated rabbits with a compound of the invention.
Briefly, this test is performed in mature male castrated New Zealand White rabbits. At least two weeks after castration animals are treated for seven days (once daily) with tablets, or arachis oil containing 5% (v/v) ethanol, resulting in a dose of 10 mg/kg/day of a test compound. Twenty-four hours after the last administration the rabbits were light sedated with 0.15 ml Hypnorm intramuscular, BSP was injected (15 mg/kg intravenous, dissolved in 5% (w/v) mannitol/H2O). Blood is collected at 5, 10, 15 and 20 minutes, BSP content in plasma is determined with a spectrophotometer. The t½ of BSP elimination from the blood is calculated from the obtained data.

The target in series [5] is T1, human progesterone receptor B (hPRB) (Homo sapiens, UniProt P06401).
T1 construct: expressed in transfected cells; host or cells: Chinese hamster ovary cells (CHO)
T1 sequence (P06401 1-933): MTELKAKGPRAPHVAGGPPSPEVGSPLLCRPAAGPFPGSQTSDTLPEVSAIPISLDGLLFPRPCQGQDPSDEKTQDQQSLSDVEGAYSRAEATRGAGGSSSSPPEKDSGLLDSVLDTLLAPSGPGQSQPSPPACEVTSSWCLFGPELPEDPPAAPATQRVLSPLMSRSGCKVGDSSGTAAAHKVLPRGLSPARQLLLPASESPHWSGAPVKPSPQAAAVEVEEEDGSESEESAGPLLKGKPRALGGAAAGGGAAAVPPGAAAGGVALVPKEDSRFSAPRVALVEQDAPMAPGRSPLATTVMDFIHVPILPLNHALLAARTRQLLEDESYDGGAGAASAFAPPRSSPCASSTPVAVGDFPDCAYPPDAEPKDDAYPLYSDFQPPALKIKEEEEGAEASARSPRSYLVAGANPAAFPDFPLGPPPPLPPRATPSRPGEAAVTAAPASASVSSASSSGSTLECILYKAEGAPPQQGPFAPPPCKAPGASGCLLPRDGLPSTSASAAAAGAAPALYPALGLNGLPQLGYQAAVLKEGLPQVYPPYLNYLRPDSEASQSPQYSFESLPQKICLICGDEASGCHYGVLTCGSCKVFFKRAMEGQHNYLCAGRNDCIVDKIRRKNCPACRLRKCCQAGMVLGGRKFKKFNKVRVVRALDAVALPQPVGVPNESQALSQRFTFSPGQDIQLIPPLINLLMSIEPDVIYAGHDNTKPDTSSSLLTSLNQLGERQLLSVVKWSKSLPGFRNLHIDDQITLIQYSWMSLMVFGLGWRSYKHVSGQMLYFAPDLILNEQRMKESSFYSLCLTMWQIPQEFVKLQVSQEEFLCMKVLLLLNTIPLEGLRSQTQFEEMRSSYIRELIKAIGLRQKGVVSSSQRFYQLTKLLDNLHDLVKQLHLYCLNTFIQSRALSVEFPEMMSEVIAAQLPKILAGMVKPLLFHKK
Kind of series: Transactivative progestagenic agonistic activity in CHO cells transfected with hPRB, MMTV and luciferase. It is filed as cell-based. To be noted: MMTV-luciferase, incubation 16 h, 37° C. The procedure: The transactivative progestagenic agonistic activity of the compounds of the invention was measured in Chinese hamster ovary cells (CHO) transfected with the human progesterone receptor B (hPRB), in combination with a mouse mammary tumor virus (MMTV), and luciferase receptor gene (incubation time 16 h, temperature 37° C.) and compared with the activity of (16α)-16-ethyl-21-hydroxy-19-norpregn-4-ene-3,20-dione [according to the procedure described by Schoonen, W. G. E. J. et al., Analyt. Biochem. 261, 222-224 (1998)].

In series [6] the target is T2, human androgen receptor (hAR) (Homo sapiens, UniProt P10275).
T2 construct: expressed in transfected cells; host or cells: Chinese hamster ovary cells (CHO)
T2 sequence (P10275 1-920): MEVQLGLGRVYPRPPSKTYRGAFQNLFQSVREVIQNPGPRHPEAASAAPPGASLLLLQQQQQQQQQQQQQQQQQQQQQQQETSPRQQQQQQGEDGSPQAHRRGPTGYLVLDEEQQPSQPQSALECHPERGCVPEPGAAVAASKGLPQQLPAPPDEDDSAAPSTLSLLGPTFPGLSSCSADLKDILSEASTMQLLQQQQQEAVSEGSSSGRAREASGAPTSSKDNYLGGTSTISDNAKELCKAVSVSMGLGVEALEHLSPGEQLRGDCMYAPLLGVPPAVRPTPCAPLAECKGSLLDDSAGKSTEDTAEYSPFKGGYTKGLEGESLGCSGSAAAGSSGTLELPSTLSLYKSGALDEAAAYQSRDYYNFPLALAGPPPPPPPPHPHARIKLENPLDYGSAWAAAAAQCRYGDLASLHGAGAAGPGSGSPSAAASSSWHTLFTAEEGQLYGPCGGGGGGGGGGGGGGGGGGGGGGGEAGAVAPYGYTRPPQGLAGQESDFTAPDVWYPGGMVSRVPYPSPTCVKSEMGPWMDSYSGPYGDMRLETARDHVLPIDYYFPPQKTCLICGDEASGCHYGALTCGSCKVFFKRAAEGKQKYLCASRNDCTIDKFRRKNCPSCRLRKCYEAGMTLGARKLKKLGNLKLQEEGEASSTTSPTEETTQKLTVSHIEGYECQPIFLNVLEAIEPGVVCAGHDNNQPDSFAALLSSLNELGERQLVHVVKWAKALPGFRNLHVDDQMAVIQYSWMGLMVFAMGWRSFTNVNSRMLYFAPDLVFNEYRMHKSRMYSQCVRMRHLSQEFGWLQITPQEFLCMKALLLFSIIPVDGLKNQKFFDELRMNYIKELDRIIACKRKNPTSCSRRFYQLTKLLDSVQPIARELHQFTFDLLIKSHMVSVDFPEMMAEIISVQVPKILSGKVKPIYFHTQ
Nature of the series: Transactivative androgen agonistic activity in CHO cells transfected with hAR, MMTV and luciferase. To be noted: MMTV-luciferase, incubation 16 h, 37° C. The format is cell-based. The procedure: The transactivative androgen agonistic activity of the compounds of the invention was measured in Chinese hamster ovary cells (CHO) transfected with the human androgen receptor (hAR), in combination with a mouse mammary tumor virus (MMTV), and luciferase receptor gene (incubation time 16 h, temperature 37° C.) and compared with the activity of 5α-dihydrotestosterone [according to the procedure described by Schoonen, W. G. E. J. et al., Analyt. Biochem. 261, 222-224 (1998)].

A further series can be described thus: Liver toxicity. To be noted: stated without citation.
[7] abbreviates: vehicle Arachis oil + 5% ethanol.

On to `C[C@@H]1CC2=CC(=O)CC[C@@H]2[C@H]2CC[C@@]3(C)[C@@H](CC[C@]3(C)O)[C@@H]21` [7α,17α-dimethylnandrolone], for which, in series [1], the Oral activity result is given as “orally active”. Also, the Liver toxicity result in series [2] is given as “severe liver toxicity”.
With `CC1CC2=CC(=O)CCC2C2CCC3(C)C(O)CCCC3C12` [7α-Methyl-19-nor-D-homotestosterone], the Oral activity entry in “Oral activity” was “not an orally active compound”.
Turning to `C[C@]1(O)CCC[C@H]2[C@@H]3CCC4=CC(=O)CC[C@@H]4[C@H]3CC[C@@]21C` [17aα-Methyl-19-nor-D-homotestosterone], in series [3], the “Prevention of trabecular bone mineral density (BMD) loss” value is listed as “unable to prevent trabecular bone mineral density (BMD) loss”. In addition, the Oral activity entry in the series “Oral activity” was “low activity upon oral administration”.
On to `C[C@]12CCC(=O)C=C1CC[C@@H]1[C@@H]2CC[C@@]2(C)[C@H]1CC[C@]2(C)O` [17α-Methyltestosterone, reference compound], for which the “T½ BSP” value in series [4] (setting [7]) came to 5.6 min; in series [4] (vehicle Tablet) it was 6.0 min.
For the compound `CCC12CCC3C4CCC(=O)C=C4CCC3C1CCCC2(C)O` [(17aβ)-13-ethyl-17a-hydroxy-17a-methyl-D-homogon-4-en-3-one], in the series “Oral activity”, the Oral activity result is “not orally active”.
Turning to `CCC12CCC3C4CCC(=O)C=C4CCC3C1CCCC2O` [(17aβ)-13-ethyl-17a-hydroxy-D-homogon-4-en-3-one], the Oral activity result in the series “Oral activity” is listed as “not orally active”.
Consider `CCC1CC2=CC(=O)CCC2C2CCC3(C)C(=CCCC3O)C12` [Compound of Example 2, (7α,17aβ)-7-Ethyl-17a-hydroxy-D-homoestra-4,14-dien-3-one], for which, in series [5], the “Progestagen activity: Relative agonistic activity (%) versus (16α)-16-ethyl-21-hydroxy-19-norpregn-4-ene-3,20-dione” value came to 0.47%. Also, the “Androgen activity: Relative agonistic activity (%) versus 5α-dihydrotestosterone” value in series [6] is 30.5%.
Turning to `CC1CC2=CC(=O)CCC2C2CCC3(C)C(=CCC(C)C3O)C12` [Compound of Example 3, (7α,17α,17aβ)-17a-Hydroxy-7,17-dimethyl-D-homoestra-4,14-dien-3-one], the “Progestagen activity: Relative agonistic activity (%) versus (16α)-16-ethyl-21-hydroxy-19-norpregn-4-ene-3,20-dione” value in series [5] is 47.4%. Also, the “Androgen activity: Relative agonistic activity (%) versus 5α-dihydrotestosterone” value in series [6] turned out to be 10.2%.
As for `CC1CC2=CC(=O)CCC2C2CCC3(C)C(=CCCC3(C)O)C12` [Compound of Example 4, (7α,17aβ)-17a-Hydroxy-7,17a-dimethyl-D-homoestra-4,14-dien-3-one], the figures for the “T½ BSP” value in series [4] (setting [7]) and in series [4] (vehicle Tablet) were 4.9 min and 5.5 min, respectively. The “Progestagen activity: Relative agonistic activity (%) versus (16α)-16-ethyl-21-hydroxy-19-norpregn-4-ene-3,20-dione” value in series [5] worked out at 133.7%. Besides, the “Androgen activity: Relative agonistic activity (%) versus 5α-dihydrotestosterone” value in series [6] stood at 106.9%.
For the compound `CC1CC2=CC(O)CCC2C2CCC3(C)C(=CCCC3(C)O)C12` [Compound of Example 5, (3β,7α,17aβ)-7,17a-Dimethyl-D-homoestra-4,14-dien-3,17a-diol], the “Progestagen activity: Relative agonistic activity (%) versus (16α)-16-ethyl-21-hydroxy-19-norpregn-4-ene-3,20-dione” value in series [5] is reported as 6.4%. The “Androgen activity: Relative agonistic activity (%) versus 5α-dihydrotestosterone” value in series [6] came out at 36.2%.
Take `CCC1(O)CCC=C2C3C(C)CC4=CC(=O)CCC4C3CCC21C` [Compound of Example 6, (7α,17aα)-17a-Hydroxy-7-methyl-D-homo-19-norpregna-4,14-dien-3-one]: the “Progestagen activity: Relative agonistic activity (%) versus (16α)-16-ethyl-21-hydroxy-19-norpregn-4-ene-3,20-dione” value in series [5] came to 91.2%. Further, the “Androgen activity: Relative agonistic activity (%) versus 5α-dihydrotestosterone” value in series [6] worked out at 13.2%.
As for `CC1(O)CCC=C2C3CCC4=CC(=O)CCC4C3CCC21C` [Compound of Example 8, (17aβ)-17a-Hydroxy-17a-methyl-D-homoestra-4,14-dien-3-one], the “Progestagen activity: Relative agonistic activity (%) versus (16α)-16-ethyl-21-hydroxy-19-norpregn-4-ene-3,20-dione” value in series [5] was 228.4%. Also, in series [6], the “Androgen activity: Relative agonistic activity (%) versus 5α-dihydrotestosterone” value stood at 157.9%.
Turning to `C#CC1(O)CCC=C2C3CCC4=CC(=O)CCC4C3CCC21C` [Compound of Example 9, (17aα)-17a-Hydroxy-D-homo-19-norpregna-4,14-dien-20-yn-3-one], in series [5], the “Progestagen activity: Relative agonistic activity (%) versus (16α)-16-ethyl-21-hydroxy-19-norpregn-4-ene-3,20-dione” value is 16.0%. Moreover, the “Androgen activity: Relative agonistic activity (%) versus 5α-dihydrotestosterone” value in series [6] was determined as 12.3%.
As for `C[C@@H]1CC2=CC(=O)CC[C@@H]2[C@H]2CC[C@@]3(C)C(=CC[C@]3(C)O)[C@@H]21` [Reference compound, (7α,17β)-17-Hydroxy-7,17-dimethylestra-4,14-dien-3-one], the Liver toxicity result in “Liver toxicity” is recorded as “severe liver toxicity”.
